Earlier results in US6869622B2, “Composition for improving sleep quality and efficiency, and methods of preparing and using the composition” (Ancile Pharmaceuticals, Inc., priority 1999, dated 2005).
Like-named read-outs stand apart in the source and are kept apart here.

What was measured:
mice [1] = details: 26 mg/kg, IP or PO
[2] = system: AMES assay and the SOS-chromo-test
[3] = system: enzyme system which catalyses breakdown of GABA in the brain; details: 1 mmole/liter
mice [4] = details: 12.5 and 25 mg/kg, IP in mice
mice [5] = system: mice
mouse = details: 50 and 100 mg/kg, IP

SMILES: CC(=O)OCc1cocc2c(C=O)ccc1-2 [baldrinal]
- Metabolic degradation of 14C-methacetin (mice [1]): distinctly inhibited
- Genotoxicity in vitro ([2]; AMES assay and SOS-chromo-test): direct mutagenic effects

SMILES: CC(=O)O[C@@H]1CC(C)=C2[C@H]1[C@H](C)CC[C@H]2/C=C(\C)C(=O)O [acetoxyvalerenic acid, Acetoxyvalerenic Acid]
- Inhibition of enzyme system which catalyses breakdown of GABA [3]: 38%

SMILES: CC1=C2[C@H](/C=C(\C)C(=O)O)CC[C@@H](C)[C@H]2CC1 [valerenic acid, Valerenic Acid]
- Inhibition of enzyme system which catalyses breakdown of GABA [3]: 20%
- Picrotoxin induced convulsions (mice [4]): antagonized
- Behavioural effects (mice [5]; 100 mg/kg intraperitoneally, mice): decrease in motor activity, a decrease in respiratory rate, absence of righting reflex, ataxia, a decrease of abdominal muscle tone, and a decrease in rotarod performance
- Performance on rotarod and traction tests (mice [5]; 100 mg/kg, IP): statistical significance
- Pentobarbital induced sleeping time (mouse): potentiate

SMILES: CC(C)CC(=O)OCc1cocc2c(C=O)ccc1-2 [homobaldrinal]
- Genotoxicity in vitro [2]: direct mutagenic effects
